According to patent US20150283147A1, “TREATING POLYCYSTIC KIDNEY DISEASE WITH HSP90 INHIBITORY COMPOUNDS” (SYNTA PHARMACEUTICALS CORP., priority 2012, published 2015):
Entries after “also recorded” stand apart in the source; their conditions may differ.

Assays:
Pkd1^−/− mice = test: Cyst formation and kidney growth in conditional Pkd1-/- mice (MRI, kidney weight, cystic index, BUN); type: in vivo
Description: All experiments involving mice were approved by the Institutional Animal Care and Use Committee of Fox Chase Cancer Center. Conditional Pkd1^−/− mice using the Cre-flox regulatory system for targeted inactivation of the Pkd1 gene in vivo were kindly provided by Gregory Germino (National Institute of Diabetes and Digestive and Kidney Diseases). Pkd1fl/fl;Cre/Esr1+ (referred to as Pkd1^−/−) and control mice (Pkd1fl/fl;Cre/Esr1−; referred to as Control) mice were injected intraperitoneally with tamoxifen (250 mg/kg body weight) on postnatal day P37/P38 (+/−1 day) to induce Pkd1 deletion in the test group.
Compound 111 was formulated in 5% dextrose titrated to pH 4, and administered by tail vein injection in anesthetized mice under sterile conditions using a volume of 10 μl/g body weight. Vehicle treated mice were injected with 5% dextrose only. To investigate the activity of compound 111 on early kidney disease, mice were treated with compound 111 for 5 months, starting 2-3 days after Pkd1 deletion. Treatment began with a weekly schedule up to 4 months of age, including one week off in the 3rd month of age, followed by a bi-weekly schedule from 4 to 6 month of age. 24 hours after the 16th injection, blood samples were collected and the mice were sacrificed to collect organs for histopathological and biochemical analysis. To investigate the activity of compound 111 on Late kidney disease, mice were dosed weekly with compound 111 for 10 weeks starting at 4 months of age. 24 hours after the 11th dose (10 weeks of treatment), blood samples were collected and the mice were sacrificed to collect organs for histopathological and biochemical analysis.
To assess the utility of HSP90 inhibition in ADPKD, Pkd1fl/fl;Cre/Esr1+ (referred to as Pkd1^−/−) and control Pkd1fl/fl;Cre/Esr1− (referred to as control) mice were injected with tamoxifen at 5-6 weeks of age to inactivate the Pkd1 gene. HSP90 was inhibited using compound, a resorcinolic triazole that competitively binds the N-terminal ATP pocket of HSP90. In one cohort of mice (designated Early), mice were dosed from 6 weeks-4 months of age, to assess drug effects on disease initiation (FIG. 1). […] (FIGS. 2-3)
In a second cohort (designated Late), mice were dosed from 4-6 months of age, to assess drug effects on mice with Late cysts, in this case using doses of 50 mg/kg and 100 mg/kg to explore dose range (FIGS. 4-6).
Mice were imaged in a vertical bore MR system at a field strength of 7 Tesla, using a Bruker DRX300 spectrometer, Paravision 3.0.2 software, and a single tuned ^1H cylindrical radiofrequency coil. […]
Using NIH ImageJ, an open source image analysis program, kidney and cyst volume were quantified. […]

Her2 = test: Degradation of Her2 in BT-474 cells (Method 1, Western blot); type: cell-based, Human; details: 0.5 μM, overnight
Description: Human high-Her2 breast carcinoma BT474 (HTB-20), SK-BR-3 (HTB-30) and MCF-7 breast carcinoma (HTB-22) from American Type Culture Collection, VA, USA were grown in Dulbecco's modified Eagle's medium with 4 mM L-glutamine and antibiotics (100 IU/ml penicillin and 100 ug/ml streptomycine;GibcoBRL). To obtain exponential cell growth, cells were trypsinized, counted and seeded at a cell density of 0.5×10^6 cells/ml regularly, every 3 days. All experiments were performed on day 1 after cell passage.
BT-474 cells are treated with 0.5 μM, 2 μM, or 5 μM of 17AAG (a positive control) or 0.5 μM, 2 μM, or 5 μM of a compound of the invention overnight in DMEM medium. After treatment, each cytoplasmic sample is prepared from 1×10^6 cells by incubation of cell lysis buffer (#9803, cell Signaling Technology) on ice for 10 minutes. The resulting supernatant used as the cytosol fractions is dissolved with sample buffer for SDS-PAGE and run on a SDS-PAGE gel, blotted onto a nitrocellulose membrane by using semi-dry transfer. Non-specific binding to nitrocellulose is blocked with 5% skim milk in TBS with 0.5% Tween at room temperature for 1 hour, then probed with anti-Her2/ErB2 mAb (rabbit IgG, #2242, Cell Signaling) and anti-Tubulin (T9026, Sigma) as housekeeping control protein. […]

FLT3 with Hsp90 = details: cited from earlier work
[1] = system: leukemia cells that express either wild type FLT3 or FLT3-ITD mutations; details: cited from earlier work
Kasumi-1 cells = details: Kasumi-1 acute myeloid leukemia cell line with c-Kit mutation; cited from earlier work

Row | Structure (SMILES) | blood urea nitrogen (BUN) (Pkd1^−/− mice; Early cohort, 75 mg/kg, blood drawn at euthanasia) | formation of renal cysts and kidney growth (Pkd1^−/− mice; Early cohort, Pkd1−/− mice, 75 mg/kg, tail vein injection, 5 months) | reduction of cyst volume and kidney growth (Pkd1^−/− mice; Late cohort, 50 mg/kg and 100 mg/kg, 1×/week for 10 weeks, tail vein injection) | BUN scores (Pkd1^−/− mice; Late cohort, 100 mg/kg, 10 weeks) | degradation of Her2 (Her2) | association of FLT3 with Hsp90 (FLT3 with Hsp90) | growth of leukemia cells [1] | apoptosis (Kasumi-1 cells)
1 | CC(C)c1cc(-c2nnc(C(=O)NCCN3CCOCC3)n2-c2ccc(CN3CCOCC3)cc2)c(O)cc1O [Compound 111, 5-(2,4-dihydroxy-5-isopropylphenyl)-N-(2-morpholinoethyl)-4-(4-(morpholinomethyl)phenyl)-4H-1,2,4-triazole-3-carboxamide] | trend towards reduction | very significantly reduced; also recorded: inhibited cyst formation, kidney growth | significant, dose-dependent effect; also recorded: reduced cystic burden | reduced BUN scores to normal levels |  |  |  | 
2 | C=CCNC1=C2C[C@@H](C)C[C@H](OC)[C@H](O)[C@@H](C)/C=C(\C)[C@H](OC(N)=O)[C@@H](OC)/C=C\C=C(/C)C(=O)NC(=CC1=O)C2=O [Compound 17AAG] |  |  |  |  | partial degradation | disrupt the association of FLT3 with Hsp90 | inhibited | induce apoptosis
